In article PMC9143880, “Improving Antimicrobial Activity and Physico-Chemical Properties by Isosteric Replacement of 2-Aminothiazole with 2-Aminooxazole” (Pharmaceuticals, 2022):
Converted amounts (≈) assume the structure as drawn. Read-outs that look alike come from different tables or passages of the source.

What was measured:
[1] = RP-UHPLC lipophilicity parameter log k’w; assay type: physicochemical; details: for log k’w: RP-UHPLC, acetonitrile/water, log k extrapolated to 0% acetonitrile; for logkw: experimental lipophilicity parameter
In short: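 Retention was measured once per eluent composition: subtype I at 40/45/50% and subtype II at 20/30/40% acetonitrile in water, isocratic RP-UHPLC. log k values from these runs gave the lipophilicity index log k’w.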

HepG2 cells = experiment: HepG2 cytotoxicity screening (CellTiter 96); assay type: cell-based, human; details: for IC50: Homo sapiens, HepG2, 24 h, 24 h incubation, CellTiter 96, * above highest tested concentration, ** limited by insolubility in medium
[2] = tested on: Mycobacterium tuberculosis H37Ra ITM-M006710 (ATCC 9431); experiment: Antimycobacterial MIC, microdilution broth / Alamar Blue (resazurin); assay type: cell-based; details: for MIC: Mycobacterium tuberculosis
[3] = tested on: M. smegmatis DSM 43465 (ATCC 607); experiment: Antimycobacterial MIC, microdilution broth / resazurin; assay type: cell-based; details: Mycolicibacterium smegmatis; resazurin after 48 h; read-out: MIC M. smegmatis
[4] = tested on: M. aurum DSM 43999 (ATCC 23366); experiment: as above; assay type: cell-based; details: Mycolicibacterium aurum; resazurin after 72 h; read-out: MIC M. aurum
[5] = tested on: Staphylococcus aureus subsp. aureus CCM 4223 (ATCC 29213); experiment: Antibacterial microdilution broth (EUCAST); assay type: cell-based; details: Staphylococcus aureus; 24h incubation; read-out: MIC SA
[6] = tested on: Staphylococcus aureus subsp. aureus (MRSA) CCM 4750 (ATCC 43300); experiment: Antibacterial microdilution broth (EUCAST); assay type: cell-based; details: Staphylococcus aureus; 24h incubation; read-out: MIC MRSA
[7] = tested on: Staphylococcus epidermidis CCM 4418 (ATCC 12228); experiment: Antibacterial microdilution broth (EUCAST); assay type: cell-based; details: Staphylococcus epidermidis; 24h incubation; read-out: MIC SE
[8] = tested on: Enterococcus faecalis CCM 4224 (ATCC 29212); experiment: Antibacterial microdilution broth (EUCAST); assay type: cell-based; details: Enterococcus faecalis; 24h incubation; read-out: MIC EF
[9] = tested on: Escherichia coli CCM 3954 (ATCC 25922); experiment: Antibacterial microdilution broth (EUCAST); assay type: cell-based; details: Escherichia coli; 24h incubation; read-out: MIC EC
[10] = tested on: Acinetobacter baumannii DSM 30007 (ATCC 19606); experiment: Antibacterial microdilution broth (EUCAST); assay type: cell-based; details: Acinetobacter baumannii; 24h incubation; read-out: MIC AB
[11] = tested on: Pseudomonas aeruginosa CCM 3955 (ATCC 27853); experiment: Antibacterial microdilution broth (EUCAST); assay type: cell-based; details: Pseudomonas aeruginosa; 72h incubation; read-out: MIC PA
[12] = tested on: bacterial MetAP (S. aureus, E. coli) vs hMetAP; parameters: method as in PMID 15664828; details: tested against S. aureus; cited from earlier work
[13] = tested on: Candida albicans CCM 8320 (ATCC 24433); experiment: Antifungal microdilution broth (EUCAST); details: Candida albicans, 24 h, read-out: MIC CA
[14] = tested on: Candida krusei CCM 8271 (ATCC 6258); experiment: Antifungal microdilution broth (EUCAST); details: Pichia kudriavzevii, 24 h, read-out: MIC CK
[15] = tested on: Candida parapsilosis CCM 8260 (ATCC 22019); experiment: Antifungal microdilution broth (EUCAST); details: Lodderomyces parapsilosis, 24 h, read-out: MIC CP
[16] = tested on: Candida tropicalis CCM 8264 (ATCC 750); experiment: Antifungal microdilution broth (EUCAST); details: Candida tropicalis, 24 h, read-out: MIC CT
[17] = tested on: Aspergillus fumigatus ATCC 204305; experiment: Antifungal microdilution broth (EUCAST); details: Aspergillus fumigatus, ATCC204305, 24 h, read-out: MIC AF
[18] = tested on: Aspergillus flavus CCM 8363; experiment: Antifungal microdilution broth (EUCAST); details: Aspergillus flavus, CCM8363, 24 h, read-out: MIC AFla
[19] = tested on: Lichtheimia corymbifera CCM 8077; experiment: Antifungal microdilution broth (EUCAST); details: Lichtheimia corymbifera, CCM8077, 24 h, read-out: MIC LC
[20] = tested on: Trichophyton interdigitale CCM 8377 (ATCC 9533); experiment: Antifungal microdilution broth (EUCAST); details: Trichophyton interdigitale, 72 h, read-out: MIC TI
[21] = tested on: M. avium DSM 44156 (ATCC 25291); experiment: Antimycobacterial MIC, microdilution broth / resazurin; assay type: cell-based, Mycobacterium avium; details: Mycobacterium avium; resazurin after 96 h; read-out: MIC M. avium
[22] = tested on: M. kansasii DSM 44162 (ATCC 12478); experiment: as above; assay type: cell-based; details: Mycobacterium kansasii, 96 h, read-out: MIC M. kansasii
PC12 cells = tested on: PC12 cells; parameters: method as in PMID 19125579; details: acting as a PARP inhibitor; cited from earlier work
[23] = 120 h, Middlebrook 7H9, resazurin after 120 h, read-out: Mtb H37Ra MIC

SMILES	log k’w [1]	logkw [1]	IC50 (HepG2 cells) [µM]	MIC [2, 23] [µg/mL]	MIC [3] [µg/mL]	MIC [4] [µg/mL]	MIC [5] [µM]	MIC [6] [µM]	MIC [7] [µM]	MIC [8] [µM]	MIC [9] [µM]	MIC [10] [µM]	MIC [11] [µM]	MIC [13] [µM]	MIC [14] [µM]	MIC [15] [µM]	MIC [16] [µM]	MIC [17] [µM]	MIC [18] [µM]	MIC [19] [µM]	other results
O=C(Nc1nccs1)c1ccccn1 [Compound 1a]	1.857	1.857	> 1000	31.2	62.5 (≈ 305 µM)	7.81 (≈ 38.1 µM)	> 500	> 500	> 500	> 500	> 500	> 500	> 500	> 500	500 (≈ 103 µg/mL)	500 (≈ 103 µg/mL)	> 500	500 (≈ 103 µg/mL)	> 500	> 500	selectivity towards bacterial MetAP over human homologue [12]: 100 fold; MIC [20]: 500 µM (≈ 103 µg/mL)
O=C(Nc1nc(-c2ccccc2)cs1)c1ccncc1 [Compound 13a]	2.190	2.19	> 100	3.91 to 7.81	≥ 500	≥ 500	> 125	> 125	> 125	> 125	> 125	> 125	> 125	> 125	> 125	> 125	> 125	> 125	> 125	> 125	SI (HepG2 cells; SI = IC50 (µM) HepG2 / MICH37Ra (µM)): >3.6; Mtb H37Ra MIC ([2]; Middlebrook 7H9, resazurin after 120 h): 7.81 µg/mL; MIC ([2]; recalculated from µg/mL, read-out: MICH37Ra): 27.8 µM; MIC [21]: ≥ 500 µg/mL; MIC [22]: 7.81 µg/mL (≈ 27.8 µM); cytoprotective effect (PC12 cells): moderate cytoprotective effect; MIC [20]: > 125 µM
